According to patent US20040176361A1, “Fused heterocyclic compound and medicinal use thereof” (priority 2001, published 2004):

Row | SMILES | melting point
1 | CN(C)C1CCN(c2cc3c(Br)cccc3c(=O)[nH]2)CC1 [Example 32, 5-bromo-3-(4-dimethylaminopiperidin-1-yl)-2H-isoquinolin-1-one] | 214 to 215 °C (dec.)
2 | COc1ccc(-c2c(C3CCN(C)CC3)[nH]c(=O)c3ccccc23)cc1 [Example 99, 4-(4-methoxyphenyl)-3-(1-methylpiperidin-4-yl)-2H-isoquinolin-1-one] | 209 to 211 °C
3 | O=c1[nH]c(N2CCN(Cc3ccccc3)C(CO)C2)cc2ccccc12 (centres unmarked) [Example 197, 3-(4-benzyl-3-hydroxymethylpiperazin-1-yl)-2H-isoquinolin-1-one] | 176 to 177 °C
4 | CN1CCC(c2[nH]c(=O)c3ccccc3c2-c2ccc(F)cc2)CC1 [Example 164, 4-(4-fluorophenyl)-3-(1-methylpiperidin-4-yl)-2H-isoquinolin-1-one] | 269 to 271 °C
5 | COc1cccc(-c2c(C3CCN(C)CC3)[nH]c(=O)c3ccccc23)c1 [Example 170, 4-(3-methoxyphenyl)-3-(1-methylpiperidin-4-yl)-2H-isoquinolin-1-one] | 181 to 183 °C
6 | CN1CCC(c2[nH]c(=O)c3ccccc3c2-c2ccccc2F)CC1 [Example 182, 4-(2-fluorophenyl)-3-(1-methylpiperidin-4-yl)-2H-isoquinolin-1-one] | 247 to 249 °C
7 | O=c1[nH]c(N2CCC(N3CCCCC3)CC2)cc2ccccc12 [Example 200, 3-(4-piperidinopiperidin-1-yl)-2H-isoquinolin-1-one] | > 200 °C (dec.)
8 | Cc1cccc(-c2c(C3CCN(C)CC3)[nH]c(=O)c3ccccc23)c1 [Example 168, 4-(3-methylphenyl)-3-(1-methylpiperidin-4-yl)-2H-isoquinolin-1-one] | 214 to 216 °C
9 | CN1CCN(N2CC(=O)c3c(ccc4ccccc34)C2)CC1 [Example 114, 3-(4-methylpiperazin-1-yl)-2H-benz[f]isoquinolin-1-one] | 253 to 254 °C (dec.)
10 | CN1CCC(c2cc3ncccc3c(=O)[nH]2)CC1 | > 240 °C (dec.)
11 | Br.O=c1[nH]c(C2CCNCC2)cc2ccccc12 | > 270 °C
12 | O=c1[nH]c(N2CCN(CCCCN3CCCCC3)CC2)cc2c(Cl)cccc12 [Example 77, 5-chloro-3-{4-[4-(piperidin-1-yl)butyl]piperazin-1-yl}-2H-isoquinolin-1-one] | 172 to 173 °C (dec.)
13 | Cc1ccccc1-c1c(C2CCN(C)CC2)[nH]c(=O)c2ccccc12 [Example 169, 4-(2-methylphenyl)-3-(1-methylpiperidin-4-yl)-2H-isoquinolin-1-one] | 249 to 251 °C
14 | CN(C)C1CCN(N2CC(=O)c3c(ccc4ccccc34)C2)CC1 [Example 115, 3-(4-dimethylaminopiperidin-1-yl)-2H-benz[f]isoquinolin-1-one] | 232 to 233 °C (dec.)
15 | CN1CCC(C2Cc3ccccc3C(=O)N2)CC1 (centres unmarked) [Example 158, 3-(1-methylpiperidin-4-yl)-3,4-dihydro-2H-isoquinolin-1-one] | 139 to 141 °C
16 | Cc1c(C2CCN(C)CC2)[nH]c(=O)c2ccccc12 | 202 to 204 °C
17 | COCOc1cccc2c(=O)[nH]c(CCCCN(C)C)cc12 [Example 187, 5-methoxymethyloxy-3-(4-dimethylaminobutyl)-2H-isoquinolin-1-one] | 109 to 111 °C

Row | SMILES | melting point
18 | O=c1[nH]c(N2CCCC(CO)C2)cc2ccccc12 (centres unmarked) [Example 201, 3-(3-hydroxymethylpiperidin-1-yl)-2H-isoquinolin-1-one] | 143 to 144 °C
19 | O=c1[nH]c(N2CCNC(CO)C2)cc2ccccc12 (centres unmarked) [Example 194, 3-(3-hydroxymethylpiperazin-1-yl)-2H-isoquinolin-1-one] | > 120 °C (dec.)
20 | COCOc1cccc2c(=O)[nH]c(C3CCN(C)CC3)cc12 [Example 171, 5-methoxymethyloxy-3-(1-methylpiperidin-4-yl)-2H-isoquinolin-1-one] | 194 to 196 °C
21 | Cc1ccc(-c2c(C3CCN(C)CC3)[nH]c(=O)c3ccccc23)cc1 [Example 163, 4-(4-methylphenyl)-3-(1-methylpiperidin-4-yl)-2H-isoquinolin-1-one] | 244 to 246 °C
22 | Cc1cccc2c(=O)[nH]c(CC3CN4CCC3CC4)nc12 (centres unmarked) | 187 to 188 °C (dec.)
23 | COc1ccccc1-c1c(C2CCN(C)CC2)[nH]c(=O)c2ccccc12 [Example 167, 4-(2-methoxyphenyl)-3-(1-methylpiperidin-4-yl)-2H-isoquinolin-1-one] | 153 to 155 °C
24 | CN1CCC=C(c2cc3ccccc3c(=O)[nH]2)C1 [Example 193, 3-(1-methyl-1,2,3,6-tetrahydropyridin-5-yl)-2H-isoquinolin-1-one] | 214 to 216 °C
25 | CN1CCC(c2cc3c(N(C)C)cccc3c(=O)[nH]2)CC1 [Example 180, 5-(dimethylamino)-3-(1-methylpiperidin-4-yl)-2H-isoquinolin-1-one] | 216 to 218 °C
26 | CC1CN(c2cc3ccccc3c(=O)[nH]2)CC(C)N1 (centres unmarked) | 208 to 210 °C
27 | O=c1[nH]c(C2CCCN(Cc3ccccc3)C2)cc2ccccc12 (centres unmarked) [Example 191, 3-(1-benzylpiperidin-3-yl)-2H-isoquinolin-1-one] | 176 to 178 °C
28 | O=c1[nH]c(N2CCN(CCCCN3CCCCC3)CC2)cc2c(Br)cccc12 [Example 78, 5-bromo-3-{4-[4-(piperidin-1-yl)butyl]piperazin-1-yl}-2H-isoquinolin-1-one] | 165 to 166 °C (dec.)
29 | CN1CCN(c2cc3c(Br)cccc3c(=O)[nH]2)CC1CO (centres unmarked) [Example 199, 5-bromo-3-(3-hydroxymethyl-4-methylpiperazin-1-yl)-2H-isoquinolin-1-one] | 200 to 202 °C
30 | CC(C)CN1CCN(c2cc3ccccc3c(=O)[nH]2)CC1CO (centres unmarked) [Example 203, 3-(3-hydroxymethyl-4-isobutylpiperazin-1-yl)-2H-isoquinolin-1-one] | 130 to 132 °C
31 | CN1CCCC(c2cc3ccccc3c(=O)[nH]2)C1 (centres unmarked) | 155 to 156 °C
32 | COCOc1ccc2cc(C3CCN(C)CC3)[nH]c(=O)c2c1 [Example 210, 7-methoxymethyloxy-3-(1-methylpiperidin-4-yl)-2H-isoquinolin-1-one] | 200 to 202 °C
33 | CN1CCC(c2[nH]c(=O)c3ccccc3c2-c2ccc(Cl)cc2)CC1 [Example 100, 4-(4-chlorophenyl)-3-(1-methylpiperidin-4-yl)-2H-isoquinolin-1-one] | 254 to 256 °C
34 | Cc1cccc2c(=O)[nH]c(C3CCC(N(C)C)CC3)nc12 (centres unmarked) [Example 137, 8-methyl-2-(4-dimethylaminocyclohexan-1-yl)-3H-quinazolin-4-one] | 181 to 183 °C (dec.)

Next, values leading:

Row | melting point | SMILES
35 | 257 to 259 °C (dec.) | CS(=O)(=O)N1CCN(c2cc3ccccc3c(=O)[nH]2)CC1 [Example 8, 3-(4-methanesulfonylpiperazin-1-yl)-2H-isoquinolin-1-one]
36 | 120 to 122 °C | CN1CCN(CCCc2cc3ccccc3c(=O)[nH]2)CC1 [Example 148, 3-(3-(4-methylpiperazin-1-yl)propyl)-2H-isoquinolin-1-one]
37 | 209 to 210 °C (dec.) | Cc1cccc2cc(N3CCN(CCO)CC3)[nH]c(=O)c12 [Example 41, 3-[4-(2-hydroxyethyl)piperazin-1-yl]-8-methyl-2H-isoquinolin-1-one]
38 | 170 to 172 °C | CN1CCN(C(=O)c2cc3ccccc3c(=O)[nH]2)CC1 [Example 83, 3-((4-methylpiperazin-1-yl)carbonyl)-2H-isoquinolin-1-one]
39 | 105 to 109 °C | CCOC(=O)C1CN(c2cc3ccccc3c(=O)[nH]2)CCN1C (centres unmarked) [Example 154, 3-(3-ethoxycarbonyl-4-methylpiperazin-1-yl)-2H-isoquinolin-1-one]
40 | 208 to 209 °C (dec.) | CCCN1CCN(c2cc3ccccc3c(=O)[nH]2)CC1 [Example 7, 3-(4-propylpiperazine-1-yl)-2H-isoquinolin-1-one]
41 | 224 to 225 °C (dec.) | Cc1cccc2cc(N3CCN(C)CC3)[nH]c(=O)c12
42 | 236 to 237 °C (dec.) | Cc1ccc2c(=O)[nH]c(N3CCN(CCO)CC3)cc2c1 [Example 35, 3-(4-(2-hydroxyethyl)piperazin-1-yl)-6-methyl-2H-isoquinolin-1-one]
43 | 239 to 241 °C | Cc1ccc2cc(C3CCN(C)CC3)[nH]c(=O)c2c1
44 | 172 to 174 °C | CN1CCN(c2cc3ccccc3c(=O)[nH]2)[C@@H](CO)C1 [Example 151, (R)-3-(2-hydroxymethyl-4-methylpiperazin-1-yl)-2H-isoquinolin-1-one]
45 | 200 to 202 °C | Cc1cccc2cc(C3CCN(C)CC3)[nH]c(=O)c12
46 | 191 to 192 °C (dec.) | CCOC(=O)N1CCN(c2cc3ccccc3c(=O)[nH]2)CC1 [Example 9, 3-(4-ethoxycarbonylpiperazin-1-yl)-2H-isoquinolin-1-one]
47 | 152 to 154 °C | CCCN1CCN(c2cc3ccccc3c(=O)[nH]2)CC1CO (centres unmarked) [Example 196, 3-(3-hydroxymethyl-4-propylpiperazin-1-yl)-2H-isoquinolin-1-one]
48 | 169 to 171 °C | CN1CCN(c2cc3ccccc3c(=O)[nH]2)[C@H](CO)C1 [Example 152, (S)-3-(2-hydroxymethyl-4-methylpiperazin-1-yl)-2H-isoquinolin-1-one]
49 | 202 to 203 °C (dec.) | Cc1cccc2c(=O)[nH]c(N3CCN(CCCCN4CCN(C)CC4)CC3)cc12 [Example 75, 5-methyl-3-(4-(4-(4-methylpiperazin-1-yl)butyl)piperazin-1-yl)-2H-isoquinolin-1-one]
50 | 242 to 243 °C (dec.) | Cc1ccc2c(=O)[nH]c(N3CCN(C)CC3)cc2c1
51 | 227 to 228 °C (dec.) | CN(C)C1CCN(c2cc3ccc(Br)cc3c(=O)[nH]2)CC1 [Example 31, 7-bromo-3-(4-dimethylaminopiperidin-1-yl)-2H-isoquinolin-1-one]
52 | 284 to 286 °C | CN1CCC(c2cc3ccc(O)cc3c(=O)[nH]2)CC1.Cl
53 | 233 to 234 °C (dec.) | CN(C)C1CCN(c2cc3ccccc3c(=O)[nH]2)C1 (centres unmarked) [Example 2, 3-(3-dimethylaminopyrrolidine-1-yl)-2H-isoquinolin-1-one]
